Assays:
Test in all cases: relative viability (nuclei count vs DMSO), 5 days (fraction); higher = more cells survive
[1] = test system: ABC-1
Procedure, shortened: (§1)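 After 5 days of treatment, lung cancer cells in 1536-well plates were fixed and stained in a single step (final 0.05% Triton X-100, 1% formaldehyde, 1 ug/ml Hoechst) and their nuclei counted on 4× images. Treatment had been applied by pin tool the day after seeding as one drug alone or as a fixed anchor-drug dose with five library-drug doses (not always all listed) in √10 steps. Relative viability is the nuclei count of treated wells divided by that of vehicle wells, and values are medians of duplicate plates.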

[2] = test system: COR-L 105
Procedure, shortened: as §1

[3] = test system: NCI-H3122
Procedure, shortened: as §1

[4] = test system: NCI-H1666
Procedure, shortened: as §1

[5] = test system: NCI-H727
Procedure, shortened: as §1

[6] = test system: NCI-H2170
Procedure, shortened: as §1

[7] = test system: PC-14
Procedure, shortened: as §1

[8] = test system: NCI-H460
Procedure, shortened: as §1

[9] = test system: LK-2
Procedure, shortened: as §1

[10] = test system: LOU-NH91
Procedure, shortened: as §1

[11] = test system: NCI-H1650
Procedure, shortened: as §1

[12] = test system: NCI-H1437
Procedure, shortened: as §1

[13] = test system: CAL-12T
Procedure, shortened: as §1

[14] = test system: 201T
Procedure, shortened: as §1

[15] = test system: NCI-H661
Procedure, shortened: as §1

[16] = test system: BEN
Procedure, shortened: as §1

[17] = test system: EKVX
Procedure, shortened: as §1

[18] = test system: HARA
Procedure, shortened: as §1

[19] = test system: NCI-H2009
Procedure, shortened: as §1

[20] = test system: NCI-H441
Procedure, shortened: as §1

[21] = test system: HCC-366
Procedure, shortened: as §1

`O=c1cc(N2CCOCC2)oc2c(-c3cccc4c3sc3ccccc34)cccc12` + CS(=O)(=O)N1CCN(Cc2cc3nc(-c4cccc5[nH]ncc45)nc(N4CCOCC4)c3s2)CC1 [Pictilisib] (partner 1 µM) gave a relative viability ([1]; first compound 0.01 µM) of 0.698, a relative viability ([1]; first compound 0.03162 µM) of 0.834 and a relative viability ([1]; first compound 0.1 µM) of 0.745. For the same compound, the relative viability ([1]; first compound 0.3162 µM) was 0.888, the relative viability ([1]; first compound 1 µM) was 0.755 and the relative viability ([2]; first compound 0.01 µM) was 0.347. The relative viability ([2]; first compound 0.03162 µM) was 0.394, the relative viability ([2]; first compound 0.1 µM) was 0.49 and the relative viability ([2]; first compound 0.3162 µM) was 0.422. For the same compound, the relative viability ([2]; first compound 1 µM) was 0.439, the relative viability ([3]; first compound 0.01 µM) was 0.623 and the relative viability ([3]; first compound 0.03162 µM) was 0.553. The relative viability ([3]; first compound 0.1 µM) was 0.651, the relative viability ([3]; first compound 0.3162 µM) was 0.552 and the relative viability ([3]; first compound 1 µM) was 0.57. The relative viability ([4]; first compound 0.01 µM) was 0.443, the relative viability ([4]; first compound 0.03162 µM) was 0.483 and the relative viability ([4]; first compound 0.1 µM) was 0.504. The relative viability ([4]; first compound 0.3162 µM) was 0.412, the relative viability ([4]; first compound 1 µM) was 0.339 and the relative viability ([5]; first compound 0.01 µM) was 0.587. It also gave a relative viability ([5]; first compound 0.03162 µM) of 0.355, a relative viability ([5]; first compound 0.1 µM) of 0.467 and a relative viability ([5]; first compound 0.3162 µM) of 0.39. It also gave a relative viability ([5]; first compound 1 µM) of 0.266, a relative viability ([6]; first compound 0.01 µM) of 0.299 and a relative viability ([6]; first compound 0.03162 µM) of 0.331. For the same compound, the relative viability ([6]; first compound 0.1 µM) was 0.369, the relative viability ([6]; first compound 0.3162 µM) was 0.375 and the relative viability ([6]; first compound 1 µM) was 0.344. The relative viability ([7]; first compound 0.01 µM) was 0.555, the relative viability ([7]; first compound 0.03162 µM) was 0.612 and the relative viability ([7]; first compound 0.1 µM) was 0.553. It also gave a relative viability ([7]; first compound 0.3162 µM) of 0.638, a relative viability ([7]; first compound 1 µM) of 0.589 and a relative viability ([8]; first compound 0.01 µM) of 0.403. The relative viability ([8]; first compound 0.03162 µM) was 0.342, the relative viability ([8]; first compound 0.1 µM) was 0.394 and the relative viability ([8]; first compound 0.3162 µM) was 0.384. The relative viability ([8]; first compound 1 µM) was 0.319, the relative viability ([9]; first compound 0.01 µM) was 0.676 and the relative viability ([9]; first compound 0.03162 µM) was 0.562. The relative viability ([9]; first compound 0.1 µM) was 0.615, the relative viability ([9]; first compound 0.3162 µM) was 0.578 and the relative viability ([9]; first compound 1 µM) was 0.64. The relative viability ([10]; first compound 0.01 µM) was 0.476, the relative viability ([10]; first compound 0.03162 µM) was 0.533 and the relative viability ([10]; first compound 0.1 µM) was 0.525. The relative viability ([10]; first compound 0.3162 µM) was 0.514, the relative viability ([10]; first compound 1 µM) was 0.531 and the relative viability ([11]; first compound 0.03162 µM) was 0.549. It also gave a relative viability ([11]; first compound 0.1 µM) of 0.56, a relative viability ([11]; first compound 0.3162 µM) of 0.504 and a relative viability ([11]; first compound 1 µM) of 0.514. The relative viability ([12]; first compound 0.01 µM) was 0.455, the relative viability ([12]; first compound 0.03162 µM) was 0.456 and the relative viability ([12]; first compound 0.1 µM) was 0.542. For the same compound, the relative viability ([12]; first compound 0.3162 µM) was 0.478, the relative viability ([12]; first compound 1 µM) was 0.412 and the relative viability ([13]; first compound 0.01 µM) was 0.368. For the same compound, the relative viability ([13]; first compound 0.1 µM) was 0.485, the relative viability ([13]; first compound 0.3162 µM) was 0.551 and the relative viability ([13]; first compound 1 µM) was 0.326. It also gave a relative viability ([14]; first compound 0.01 µM) of 0.698, a relative viability ([14]; first compound 0.03162 µM) of 0.67 and a relative viability ([14]; first compound 0.1 µM) of 0.692. It also gave a relative viability ([14]; first compound 0.3162 µM) of 0.705, a relative viability ([14]; first compound 1 µM) of 0.661 and a relative viability ([15]; first compound 0.01 µM) of 0.362. It also gave a relative viability ([15]; first compound 0.03162 µM) of 0.352, a relative viability ([15]; first compound 0.1 µM) of 0.376 and a relative viability ([15]; first compound 0.3162 µM) of 0.409. For the same compound, the relative viability ([15]; first compound 1 µM) was 0.331, the relative viability ([16]; first compound 0.01 µM) was 0.593 and the relative viability ([16]; first compound 0.03162 µM) was 0.579. The relative viability ([16]; first compound 0.1 µM) was 0.593, the relative viability ([16]; first compound 0.3162 µM) was 0.655 and the relative viability ([16]; first compound 1 µM) was 0.535. The relative viability ([17]; first compound 0.01 µM) was 0.418, the relative viability ([17]; first compound 0.03162 µM) was 0.496 and the relative viability ([17]; first compound 0.1 µM) was 0.507. It also gave a relative viability ([17]; first compound 0.3162 µM) of 0.439, a relative viability ([17]; first compound 1 µM) of 0.431 and a relative viability ([18]; first compound 0.01 µM) of 0.315. For the same compound, the relative viability ([18]; first compound 0.03162 µM) was 0.381, the relative viability ([18]; first compound 0.1 µM) was 0.435 and the relative viability ([18]; first compound 0.3162 µM) was 0.362. For the same compound, the relative viability ([18]; first compound 1 µM) was 0.457, the relative viability ([19]; first compound 0.01 µM) was 0.802 and the relative viability ([19]; first compound 0.03162 µM) was 0.864. For the same compound, the relative viability ([19]; first compound 0.1 µM) was 0.735, the relative viability ([19]; first compound 0.3162 µM) was 0.796 and the relative viability ([19]; first compound 1 µM) was 0.813. It also gave a relative viability ([20]; first compound 0.01 µM) of 0.561, a relative viability ([20]; first compound 0.03162 µM) of 0.483 and a relative viability ([20]; first compound 0.1 µM) of 0.487. For the same compound, the relative viability ([20]; first compound 0.3162 µM) was 0.438, the relative viability ([20]; first compound 1 µM) was 0.579 and the relative viability ([21]; first compound 0.01 µM) was 0.197. For the same compound, the relative viability ([21]; first compound 0.03162 µM) was 0.154, the relative viability ([21]; first compound 0.1 µM) was 0.1 and the relative viability ([21]; first compound 0.3162 µM) was 0.154. It also gave a relative viability ([21]; first compound 1 µM) of 0.137.

— the supplement of paper PMC10307832
